In patent US12545673B2, “Imidazopyridine derivative and pharmaceutical composition comprising same as active ingredient” (TSD LIFE SCIENCES CO., LTD., priority 2019, dated 2026):

Columns and labels:
[1] = tested on: acute myeloid leukemia cell line U937; experiment: Cancer cell proliferation inhibitory activity evaluation 2 (CCK-8), U937; type: cell-based; details: Homo sapiens, U-937; 10 μM, 72 hours, CCK-8 (Table 3); read-out: Cancer cell proliferation inhibitory activity U937
Experimental: (§1) In order to identify whether the compounds have anticancer activity, the acute myeloid leukemia cell line U937, the acute lymphoblastic leukemia cell line Jurkat, the gastric cancer cell lines AGS, […], and the human lung cancer cell line A549 were used. The cell line was cultured using RPMI-1640 medium (U937, Jurkat, AGS, A549) or DMEM (Hs746T) medium containing 10% fetal bovine serum. Welgene products were used as the medium, and hyclone products were used for fetal bovine serum, and 1% of antibiotics for cell culture from Gibco were used as the culture medium.

MLK3 = MLK3 (Homo sapiens (Human), UniProt Q16584); experiment: Evaluation of inhibitory activity of enzyme units, MLK3 ([γ-33P]-ATP filter assay); details: read-out: IC50(nM) MLK3
MLK3, sequence (Q16584 whole entry, looked up): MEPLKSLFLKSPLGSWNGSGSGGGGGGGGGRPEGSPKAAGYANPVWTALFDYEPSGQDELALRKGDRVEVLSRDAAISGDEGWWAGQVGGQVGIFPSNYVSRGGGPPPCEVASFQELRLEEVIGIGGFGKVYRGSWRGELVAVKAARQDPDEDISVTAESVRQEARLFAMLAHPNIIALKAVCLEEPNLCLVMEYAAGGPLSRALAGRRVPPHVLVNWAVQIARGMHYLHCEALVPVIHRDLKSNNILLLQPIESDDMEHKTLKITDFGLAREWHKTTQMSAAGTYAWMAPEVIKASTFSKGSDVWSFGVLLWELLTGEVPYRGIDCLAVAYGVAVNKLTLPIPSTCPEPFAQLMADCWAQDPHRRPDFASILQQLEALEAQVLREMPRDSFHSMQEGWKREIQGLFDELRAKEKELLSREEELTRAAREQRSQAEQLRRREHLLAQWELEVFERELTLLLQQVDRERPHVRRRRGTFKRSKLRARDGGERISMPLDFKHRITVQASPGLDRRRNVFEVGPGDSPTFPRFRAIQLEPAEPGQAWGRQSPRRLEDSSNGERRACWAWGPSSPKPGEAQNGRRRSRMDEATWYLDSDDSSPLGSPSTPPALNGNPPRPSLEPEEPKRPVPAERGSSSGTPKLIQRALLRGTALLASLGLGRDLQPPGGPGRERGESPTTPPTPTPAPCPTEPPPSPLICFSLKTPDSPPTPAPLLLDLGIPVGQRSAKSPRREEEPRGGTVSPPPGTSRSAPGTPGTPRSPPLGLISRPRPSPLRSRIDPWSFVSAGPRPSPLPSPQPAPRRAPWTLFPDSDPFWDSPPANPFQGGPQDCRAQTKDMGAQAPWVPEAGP

[2] = tested on: gastric cancer cell line AGS; experiment: Cancer cell proliferation inhibitory activity evaluation 2 (CCK-8), AGS; type: cell-based; details: Homo sapiens; 10 μM, 72 hours, CCK-8; read-out: Cancer cell proliferation inhibitory activity AGS
Experimental: as §1

[3] = tested on: acute lymphoblastic leukemia cell line Jurkat; experiment: Cancer cell proliferation inhibitory activity evaluation 2 (CCK-8), Jurkat; type: cell-based; details: Homo sapiens, 10 μM, 72 hours, CCK-8, read-out: Cancer cell proliferation inhibitory activity Jurkat
Experimental: as §1

| Compound | inhibition at 10 µM [1] [%] | IC50 (MLK3) [nM] | inhibition at 10 µM [2] [%] | inhibition at 10 µM [3] [%] |
| --- | --- | --- | --- | --- |
| Cc1cc(-c2nc3c(Nc4cccc(S(N)(=O)=O)c4)c(Br)cnc3[nH]2)c(C)n1-c1ccc2c(c1)OCO2 [Example 41, 3-((2-(1-(benzo[d][1,3]dioxole-5-yl)-2,5-dimethyl-1H-pyrrol-3-yl)-6-bromo-3H-imidazo[4,5-b]pyridine-7-yl)amino)benzenesulfonamide] | 10 to 50 | 70 | 10 to 50 | 10 to 50 |
| CCS(=O)(=O)N1CC[C@H](Nc2c(Br)cnc3nc(-c4cc(C)n(-c5cccc(C(=O)NCCN(C)C)c5C)c4C)[nH]c23)C1 [Example 82, 3-(3-(6-bromo-7-(((S)-1-(ethylsulfonyl)pyrrolidine-3-yl)amino)-1H-imidazo[4,5-b]pyridine-2-yl)-2,5-dimethyl-1H-pyrrol-1-yl)-N-(2-(dimethylamino)ethyl)-2-methylbenzamide] |  | 14 |  |  |
| CCS(=O)(=O)N1CC[C@H](Nc2c(Br)cnc3nc(-c4cc(C)n(-c5cccc(NC(=O)CN(C)C)c5C)c4C)[nH]c23)C1 [Example 84, N-(3-(3-(6-bromo-7-(((S)-1-(ethylsulfonyl)pyrolidine-3-yl)amino)-1H-imidazo[4,5-b]pyridine-2-yl)-2,5-dimethyl-1H-pyrrol-1-yl)-2-methylphenyl)-2-(dimethylamino) acetamide] |  | 8 |  |  |
| Cc1cc(-c2nc3c(Nc4cccc(S(N)(=O)=O)c4)c(Br)cnc3[nH]2)c(C)n1-c1ccc(S(=O)(=O)N2CCOCC2)cc1 [Example 29, 3-((6-bromo-2-(2,5-dimethyl-1-(4-(morpholinosulfonyl)phenyl)-1H-pyrrol-3-yl)-3H-imidazo[4,5-b]pyridine-7-yl)amino)benzenesulfonamide] | < 10 | 25 | 10 to 50 | 10 to 50 |
| CCS(=O)(=O)N1CC[C@H](Nc2c(Br)cnc3[nH]c(-c4cc(C)n(-c5ccc(C(=O)NCCN(C)C)cc5)c4C)nc23)C1 [Example 62, (S)-4-(3-(6-bromo-7-((1-(ethylsulfonyl)pyrrolidine-3-yl)amino)-3H-imidazo[4,5-b]pyridine-2-yl)-2,5-dimethyl-1H-pyrrol-1-yl)-N-(2-(dimethylamino)ethyl)benzamide] |  | 17 |  |  |
| COCCOc1cccc(-n2c(C)cc(-c3nc4ncc(Br)c(Nc5cccc(S(N)(=O)=O)c5)c4[nH]3)c2C)c1 [Example 42, 3-((6-bromo-2-(1-(3-(2-methoxyethoxy)phenyl)-2,5-dimethyl-1H-pyrrol-3-yl)-1H-imidazo[4,5-b]pyridine-7-yl)amino)benzenesulfonamide] | 10 to 50 | 83 | > 50 | > 50 |
| CCS(=O)(=O)N1CC[C@H](Nc2c(Br)cnc3[nH]c(-c4cc(C)n(-c5ccc(S(=O)(=O)N6CCOCC6)cc5)c4C)nc23)C1 [Example 10, (S)-6-bromo-2-(2,5-dimethyl-1-(4-(morpholinosulfonyl)phenyl)-1H-pyrrol-3-yl)-N-(1-(ethylsulfonyl)pyrrolidine-3-yl)-3H-imidazo[4,5-b]pyridine-7-amine] | 10 to 50 | 7 | 10 to 50 | > 50 |
| CCS(=O)(=O)N1CC[C@H](Nc2c(Br)cnc3nc(-c4cc(C)n(-c5cccc(NC(=O)CN6CCOCC6)c5C)c4C)[nH]c23)C1 [Example 85, N-(3-(3-(6-bromo-7-(((S)-1-(ethylsulfonyl)pyrrolidine-3-yl)amino)-1H-imidazo[4,5-b]pyridine-2-yl)-2,5-dimethyl-1H-pyrrol-1-yl)-2-methylphenyl)-2-morpholinoacetamide] |  | 11 |  |  |
| CCS(=O)(=O)N1CC[C@H](Nc2c(Br)cnc3[nH]c(-c4cc(C)n(-c5ccc(C(=O)N(C)CCN(C)C)cc5)c4C)nc23)C1 [Example 63, (S)-4-(3-(6-bromo-7-((1-(ethylsulfonyl)pyrrolidine-3-yl)amino)-3H-imidazo[4,5-b]pyridine-2-yl)-2,5-dimethyl-1H-pyrrol-1-yl)-N-(2-(dimethylamino)ethyl)-N-methylbenzamide] |  | 14 |  |  |
| Cc1cc(-c2nc3ncc(Br)c(Nc4cccc(S(N)(=O)=O)c4)c3[nH]2)c(C)n1-c1ccccc1 [Example 43, 3-((6-bromo-2-(2,5-dimethyl-1-phenyl-1H-pyrrol-3-yl)-1H-imidazo[4,5-b]pyridine-7-yl)amino)benzenesulfonamide] | 10 to 50 | 85 | 10 to 50 | > 50 |
| Cc1c(NS(C)(=O)=O)cccc1-n1c(C)cc(-c2nc3c(Nc4cccc(S(N)(=O)=O)c4)c(Br)cnc3[nH]2)c1C [Example 34, 3-((6-bromo-2-(2,5-dimethyl-1-(2-methyl-3-(methylsulfonamido)phenyl)-1H-pyrrol-3-yl)-3H-imidazo[4,5-b]pyridine-7-yl)amino)benzenesulfonamide] | 10 to 50 | 41 | 10 to 50 | 10 to 50 |
| COCCOc1ccc(Nc2c(Br)cnc3[nH]c(-c4cc(C)n(-c5cccc(S(N)(=O)=O)c5)c4C)nc23)cc1 [Example 46, 3-(3-(6-bromo-7-((4-(2-methoxyethoxy)phenyl)amino)-3H-imidazo[4,5-b]pyridine-2-yl)-2,5-dimethyl-1H-pyrrol-1-yl)benzenesulfonamide] | 10 to 50 |  | 10 to 50 | > 50 |
| Cc1cc(NS(C)(=O)=O)ccc1-n1c(C)cc(-c2nc3c(Nc4cccc(S(N)(=O)=O)c4)c(Br)cnc3[nH]2)c1C [Example 32, 3-((6-bromo-2-(2,5-dimethyl-1-(2-methyl-4-(methylsulfonamido)phenyl)-1H-pyrrol-3-yl)-3H-imidazo[4,5-b]pyridine-7-yl)amino)benzenesulfonamide] | 10 to 50 | 32 | 10 to 50 | 10 to 50 |
| CCS(=O)(=O)N1CC[C@H](Nc2c(Br)cnc3nc(-c4cc(C)n(-c5cc(C(=O)N6CCN(C)CC6)ccc5C)c4C)[nH]c23)C1 [Example 92, (3-(3-(6-bromo-7-(((S)-1-(ethylsulfonyl)pyrrolidine-3-yl)amino)-1H-imidazo[4,5-b]pyridine-2-yl)-2,5-dimethyl-1H-pyrrol-1-yl)-4-methylphenyl) (4-methylpiperazine-1-yl) methanone] |  | 26 |  |  |
| Cc1cc(-c2nc3c(Nc4cccc(S(N)(=O)=O)c4)c(Br)cnc3[nH]2)c(C)n1-c1cccc(S(=O)(=O)N2CCOCC2)c1 [Example 30, 3-((6-bromo-2-(2,5-dimethyl-1-(3-(morpholinosulfonyl)phenyl)-1H-pyrrol-3-yl)-3H-imidazo[4,5-b]pyridine-7-yl)amino)benzenesulfonamide] | < 10 |  | 10 to 50 | 10 to 50 |
| CCS(=O)(=O)N1CC[C@H](Nc2c(Br)cnc3[nH]c(-c4cc(C)n(-c5ccc(C(=O)N6CCN(C)CC6)cc5C)c4C)nc23)C1 [Example 97, (4-(3-(6-bromo-7-(((S)-1-(ethylsulfonyl)pyrrolidine-3-yl)amino)-3H-imidazo[4,5-b]pyridine-2-yl)-2,5-dimethyl-1H-pyrrol-1-yl)-3-methylphenyl) (4-methylpiperazine-1-yl) methanone] |  | 20 |  |  |
